The source of these data is article PMC7827406, “Structure–Activity Relationship (SAR) Study of Spautin-1 to Entail the Discovery of Novel NEK4 Inhibitors” (International Journal of Molecular Sciences, 2021).

Common to all, as to assay: biochemical
Design in all cases: Eurofins KinaseProfiler full panel at Km ATP, residual kinase activity (%) relative to DMSO

The target in one assay is WNK2(h) (Homo sapiens, UniProt Q9Y3S1). Summed up: (§1)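 Radiometric kinase activity assays were run with ATP at Km and compounds at 10 µM, and remaining activity (%) was reported. A separate competitive binding screen measured DNA-tagged kinase displaced from immobilized active-site ligands by qPCR, giving percent kinase still bound at 10 µM compound in DMSO.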
WNK2(h), sequence (Q9Y3S1 whole entry): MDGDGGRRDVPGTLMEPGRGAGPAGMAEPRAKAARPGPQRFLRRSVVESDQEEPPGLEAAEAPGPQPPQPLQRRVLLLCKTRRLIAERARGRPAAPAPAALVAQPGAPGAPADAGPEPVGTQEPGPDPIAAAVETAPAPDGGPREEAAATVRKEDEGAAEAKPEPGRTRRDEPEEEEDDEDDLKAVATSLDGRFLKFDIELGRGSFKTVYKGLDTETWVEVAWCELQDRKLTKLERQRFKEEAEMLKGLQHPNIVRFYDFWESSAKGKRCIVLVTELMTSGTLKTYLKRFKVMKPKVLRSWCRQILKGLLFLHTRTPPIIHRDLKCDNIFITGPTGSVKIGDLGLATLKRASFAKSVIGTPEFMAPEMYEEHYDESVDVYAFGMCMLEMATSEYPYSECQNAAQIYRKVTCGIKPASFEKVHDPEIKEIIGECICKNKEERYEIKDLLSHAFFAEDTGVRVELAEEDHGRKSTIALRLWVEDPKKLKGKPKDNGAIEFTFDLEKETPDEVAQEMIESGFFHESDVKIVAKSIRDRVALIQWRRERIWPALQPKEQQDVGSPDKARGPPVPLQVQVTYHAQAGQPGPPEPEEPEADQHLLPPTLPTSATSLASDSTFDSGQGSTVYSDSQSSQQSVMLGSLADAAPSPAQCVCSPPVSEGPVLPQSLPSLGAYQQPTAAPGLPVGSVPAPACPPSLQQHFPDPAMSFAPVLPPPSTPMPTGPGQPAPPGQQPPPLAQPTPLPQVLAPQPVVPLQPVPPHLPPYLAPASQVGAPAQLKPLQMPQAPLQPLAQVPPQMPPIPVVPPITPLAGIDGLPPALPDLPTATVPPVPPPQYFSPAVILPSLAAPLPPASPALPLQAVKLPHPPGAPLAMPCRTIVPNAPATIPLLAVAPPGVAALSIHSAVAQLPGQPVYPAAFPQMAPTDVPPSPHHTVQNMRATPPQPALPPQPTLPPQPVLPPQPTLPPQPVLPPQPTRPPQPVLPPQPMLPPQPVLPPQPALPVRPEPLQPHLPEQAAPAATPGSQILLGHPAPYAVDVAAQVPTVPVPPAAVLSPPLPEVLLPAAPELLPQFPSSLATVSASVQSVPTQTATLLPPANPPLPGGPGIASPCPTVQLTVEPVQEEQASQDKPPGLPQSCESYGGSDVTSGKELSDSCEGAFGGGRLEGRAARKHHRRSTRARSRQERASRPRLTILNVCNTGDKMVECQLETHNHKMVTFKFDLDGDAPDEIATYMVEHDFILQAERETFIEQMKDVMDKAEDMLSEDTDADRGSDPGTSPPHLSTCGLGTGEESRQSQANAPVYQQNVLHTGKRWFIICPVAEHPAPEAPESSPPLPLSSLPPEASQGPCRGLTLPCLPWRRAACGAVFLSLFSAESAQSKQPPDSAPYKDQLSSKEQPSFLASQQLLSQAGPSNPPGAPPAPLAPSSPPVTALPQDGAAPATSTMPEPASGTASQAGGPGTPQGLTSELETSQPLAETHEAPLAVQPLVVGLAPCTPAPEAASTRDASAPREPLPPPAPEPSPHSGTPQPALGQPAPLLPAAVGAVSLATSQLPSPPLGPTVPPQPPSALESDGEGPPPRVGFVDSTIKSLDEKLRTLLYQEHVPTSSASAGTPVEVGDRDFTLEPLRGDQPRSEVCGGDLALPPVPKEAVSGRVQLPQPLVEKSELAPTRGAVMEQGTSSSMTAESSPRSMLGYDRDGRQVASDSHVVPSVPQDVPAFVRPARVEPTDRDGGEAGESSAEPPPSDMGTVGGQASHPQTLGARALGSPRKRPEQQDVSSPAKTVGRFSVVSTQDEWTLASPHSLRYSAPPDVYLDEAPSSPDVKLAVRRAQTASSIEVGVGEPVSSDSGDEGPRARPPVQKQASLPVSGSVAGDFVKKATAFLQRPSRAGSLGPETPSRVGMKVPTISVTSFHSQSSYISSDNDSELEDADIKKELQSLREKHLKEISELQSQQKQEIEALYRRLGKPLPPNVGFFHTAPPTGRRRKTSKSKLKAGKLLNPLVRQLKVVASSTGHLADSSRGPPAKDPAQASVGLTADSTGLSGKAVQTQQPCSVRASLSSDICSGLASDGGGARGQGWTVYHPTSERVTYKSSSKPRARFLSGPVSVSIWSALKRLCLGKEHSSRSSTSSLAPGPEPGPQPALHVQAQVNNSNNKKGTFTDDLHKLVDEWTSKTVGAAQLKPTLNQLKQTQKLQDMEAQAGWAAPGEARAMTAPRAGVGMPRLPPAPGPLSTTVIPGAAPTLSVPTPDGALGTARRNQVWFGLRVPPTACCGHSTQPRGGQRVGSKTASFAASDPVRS
The next assay has as its target T1, ALK2(h) (Homo sapiens, UniProt Q04771).
T1 construct: gene ACVR1
T1 sequence (Q04771 1-509): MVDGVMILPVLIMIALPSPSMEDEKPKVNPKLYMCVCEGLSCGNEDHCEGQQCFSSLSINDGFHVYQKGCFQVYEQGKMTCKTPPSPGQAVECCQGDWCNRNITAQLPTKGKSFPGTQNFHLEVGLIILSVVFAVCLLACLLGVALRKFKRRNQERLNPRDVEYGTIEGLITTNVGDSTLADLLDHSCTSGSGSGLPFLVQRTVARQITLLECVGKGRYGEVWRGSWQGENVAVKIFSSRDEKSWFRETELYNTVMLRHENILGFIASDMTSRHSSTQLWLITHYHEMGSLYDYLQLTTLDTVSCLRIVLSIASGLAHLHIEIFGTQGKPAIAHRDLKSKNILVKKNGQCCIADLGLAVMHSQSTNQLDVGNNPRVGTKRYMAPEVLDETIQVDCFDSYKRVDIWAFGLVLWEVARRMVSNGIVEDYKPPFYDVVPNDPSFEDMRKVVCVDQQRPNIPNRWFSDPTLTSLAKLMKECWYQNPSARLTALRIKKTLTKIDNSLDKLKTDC
Summed up: as §1

In the next assay the target is T2, EphA8(h) (Homo sapiens, UniProt P29322).
T2 sequence (P29322 1-1005): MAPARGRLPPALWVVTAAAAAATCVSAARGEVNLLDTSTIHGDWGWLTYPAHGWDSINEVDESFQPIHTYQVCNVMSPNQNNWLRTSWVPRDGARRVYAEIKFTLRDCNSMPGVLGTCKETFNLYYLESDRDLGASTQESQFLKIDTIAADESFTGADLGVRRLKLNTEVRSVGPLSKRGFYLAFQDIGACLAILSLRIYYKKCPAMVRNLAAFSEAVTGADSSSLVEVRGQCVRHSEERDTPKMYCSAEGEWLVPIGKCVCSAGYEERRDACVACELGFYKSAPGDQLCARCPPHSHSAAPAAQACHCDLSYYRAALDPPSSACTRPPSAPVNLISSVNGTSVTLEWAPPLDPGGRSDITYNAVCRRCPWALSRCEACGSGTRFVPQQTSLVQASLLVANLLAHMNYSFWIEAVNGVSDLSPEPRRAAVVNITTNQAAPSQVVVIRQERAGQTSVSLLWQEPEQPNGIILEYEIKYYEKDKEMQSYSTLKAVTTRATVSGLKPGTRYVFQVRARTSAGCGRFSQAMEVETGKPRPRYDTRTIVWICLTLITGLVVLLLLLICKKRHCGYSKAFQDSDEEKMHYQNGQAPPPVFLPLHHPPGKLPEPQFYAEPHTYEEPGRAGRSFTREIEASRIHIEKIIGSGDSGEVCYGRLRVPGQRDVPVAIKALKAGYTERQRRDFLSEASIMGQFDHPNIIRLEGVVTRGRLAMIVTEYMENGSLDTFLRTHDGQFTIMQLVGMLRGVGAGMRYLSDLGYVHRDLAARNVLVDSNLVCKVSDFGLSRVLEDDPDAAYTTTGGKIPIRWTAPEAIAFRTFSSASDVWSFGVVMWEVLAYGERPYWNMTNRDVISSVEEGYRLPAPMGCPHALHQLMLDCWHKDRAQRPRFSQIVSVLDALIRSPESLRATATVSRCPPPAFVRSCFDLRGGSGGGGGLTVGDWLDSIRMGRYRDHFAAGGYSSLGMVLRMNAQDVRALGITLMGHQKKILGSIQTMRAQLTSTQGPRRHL
The method in brief:
as §1

A further assay deals with T3, IRE1(h) (Homo sapiens, UniProt O75460).
T3 construct: gene ERN1
The method in brief: as §1

The next assay concerns the target T4, IRAK4(h) (Homo sapiens, UniProt Q9NWZ3).
T4 sequence (Q9NWZ3 1-460): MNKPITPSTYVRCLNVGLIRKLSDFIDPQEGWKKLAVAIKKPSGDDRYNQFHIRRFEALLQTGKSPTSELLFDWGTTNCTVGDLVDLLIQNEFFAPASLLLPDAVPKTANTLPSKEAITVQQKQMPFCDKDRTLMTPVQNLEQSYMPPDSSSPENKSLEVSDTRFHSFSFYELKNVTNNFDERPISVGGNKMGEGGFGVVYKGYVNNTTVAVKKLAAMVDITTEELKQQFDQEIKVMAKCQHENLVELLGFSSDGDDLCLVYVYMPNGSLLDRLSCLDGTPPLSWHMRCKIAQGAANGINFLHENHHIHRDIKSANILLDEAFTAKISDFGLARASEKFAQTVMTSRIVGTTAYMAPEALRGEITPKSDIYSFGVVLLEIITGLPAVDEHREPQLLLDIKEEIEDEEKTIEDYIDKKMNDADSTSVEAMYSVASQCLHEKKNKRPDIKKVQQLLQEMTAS
The method in brief: as §1

In another assay the target is T5, MLK1(h) (Homo sapiens, UniProt P80192).
T5 construct: gene MAP3K9
T5 sequence (P80192 whole entry): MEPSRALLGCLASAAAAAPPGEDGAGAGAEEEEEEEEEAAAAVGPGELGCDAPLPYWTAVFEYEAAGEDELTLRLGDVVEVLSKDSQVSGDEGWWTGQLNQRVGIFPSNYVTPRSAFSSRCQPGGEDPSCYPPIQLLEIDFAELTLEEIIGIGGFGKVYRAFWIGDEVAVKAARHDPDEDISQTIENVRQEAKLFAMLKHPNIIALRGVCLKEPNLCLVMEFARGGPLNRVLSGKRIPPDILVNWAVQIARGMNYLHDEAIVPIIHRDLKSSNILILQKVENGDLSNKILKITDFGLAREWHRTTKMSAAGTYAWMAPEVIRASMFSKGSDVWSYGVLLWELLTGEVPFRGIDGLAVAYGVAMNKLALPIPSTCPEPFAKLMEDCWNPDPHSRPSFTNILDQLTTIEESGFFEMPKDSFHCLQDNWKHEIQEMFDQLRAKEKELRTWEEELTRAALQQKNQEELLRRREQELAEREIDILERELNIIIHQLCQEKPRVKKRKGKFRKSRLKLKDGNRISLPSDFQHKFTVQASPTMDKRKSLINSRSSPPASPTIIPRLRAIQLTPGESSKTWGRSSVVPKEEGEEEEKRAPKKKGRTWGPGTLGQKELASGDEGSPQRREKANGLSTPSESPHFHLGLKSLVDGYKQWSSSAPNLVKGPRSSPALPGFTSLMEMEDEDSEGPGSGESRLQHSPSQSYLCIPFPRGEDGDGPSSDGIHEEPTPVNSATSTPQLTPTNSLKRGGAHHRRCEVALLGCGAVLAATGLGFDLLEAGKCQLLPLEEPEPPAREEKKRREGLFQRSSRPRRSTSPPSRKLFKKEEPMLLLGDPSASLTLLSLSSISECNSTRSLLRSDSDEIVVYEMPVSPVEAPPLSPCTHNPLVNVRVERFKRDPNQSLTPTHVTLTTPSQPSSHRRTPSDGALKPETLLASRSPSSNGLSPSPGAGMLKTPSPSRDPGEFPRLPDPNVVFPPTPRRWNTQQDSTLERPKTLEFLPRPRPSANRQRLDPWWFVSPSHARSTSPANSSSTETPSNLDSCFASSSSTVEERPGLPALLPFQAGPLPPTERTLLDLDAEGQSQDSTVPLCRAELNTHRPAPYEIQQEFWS
The method in brief: as §1

Another assay concerns the target CDK7/cyclinH/MAT1(h) (Homo sapiens, UniProt P50613). The method in brief:
as §1

[1] abbreviates: read-out: Residual activity (%) Spautin-1 5aa.
Where [2] appears, read: read-out: Residual activity (%) 5as.
The mark [3] stands for this setting: read-out: Residual activity (%) 5at.
Where [4] appears, read: read-out: Residual activity (%) 5ay.

Where two headings read alike, the source gives them in different places.

CDK7/cyclinH/MAT1(h), sequence (P50613 whole entry): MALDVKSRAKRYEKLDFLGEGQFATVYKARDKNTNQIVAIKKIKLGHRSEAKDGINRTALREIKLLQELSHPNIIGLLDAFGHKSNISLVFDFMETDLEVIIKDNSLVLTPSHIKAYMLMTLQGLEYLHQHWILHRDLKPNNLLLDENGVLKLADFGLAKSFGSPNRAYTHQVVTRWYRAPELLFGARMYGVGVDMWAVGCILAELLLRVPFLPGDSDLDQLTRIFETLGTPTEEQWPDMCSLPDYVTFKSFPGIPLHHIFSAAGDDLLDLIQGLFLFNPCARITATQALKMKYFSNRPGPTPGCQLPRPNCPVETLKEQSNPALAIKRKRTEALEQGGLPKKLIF
CDK7/cyclinH/MAT1(h), sequence (P51946 whole entry partner): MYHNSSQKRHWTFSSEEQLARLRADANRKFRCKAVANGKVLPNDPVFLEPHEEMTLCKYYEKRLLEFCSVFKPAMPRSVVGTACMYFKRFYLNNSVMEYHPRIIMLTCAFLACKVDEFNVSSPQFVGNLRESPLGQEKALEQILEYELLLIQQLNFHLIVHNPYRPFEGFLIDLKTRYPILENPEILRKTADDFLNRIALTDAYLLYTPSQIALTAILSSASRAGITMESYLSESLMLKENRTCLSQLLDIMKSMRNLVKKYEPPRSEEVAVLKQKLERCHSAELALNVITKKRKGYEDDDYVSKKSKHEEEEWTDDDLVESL
CDK7/cyclinH/MAT1(h), sequence (P51948 whole entry partner): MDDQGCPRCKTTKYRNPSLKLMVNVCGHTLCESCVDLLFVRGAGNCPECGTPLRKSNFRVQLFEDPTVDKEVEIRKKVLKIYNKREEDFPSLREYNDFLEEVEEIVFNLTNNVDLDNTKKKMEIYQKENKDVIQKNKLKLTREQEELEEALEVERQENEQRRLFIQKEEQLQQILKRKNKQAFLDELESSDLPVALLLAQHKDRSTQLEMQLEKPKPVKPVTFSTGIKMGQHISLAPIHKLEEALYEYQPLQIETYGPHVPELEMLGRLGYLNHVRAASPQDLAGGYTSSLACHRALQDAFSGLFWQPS

`Fc1ccc(CNc2ncnc3ccc(F)cc23)cc1` [5aa, 6-Fluoro-N-(4-fluorobenzyl)-4-Quinazolinamine]: the remaining activity at 10 µM on WNK2(h) (setting [1]) amounted to 77%; on ALK2(h) (setting [1]), 60%; on EphA8(h) (setting [1]), 87%; at IRE1(h) (setting [1]) it was 99%; at IRAK4(h) (setting [1]), 96%; on MLK1(h) (setting [1]) it was 89%. Further, on CDK7/cyclinH/MAT1(h) (setting [1]), the remaining activity at 10 µM was 62%.

Take `Fc1ccc(CCNc2ncnc3ccc(F)cc23)cc1` [5as, 6-Fluoro-N-[2-(4-Fluorophenyl)Ethyl]-4-Quinazolinamine]: the remaining activity at 10 µM at WNK2(h) (setting [2]) was 74%; at ALK2(h) (setting [2]), 45%; on EphA8(h) (setting [2]) it was 88%; on IRE1(h) (setting [2]), 89%; on IRAK4(h) (setting [2]) it was 92%; at MLK1(h) (setting [2]), 77%. Besides, the remaining activity at 10 µM at CDK7/cyclinH/MAT1(h) (setting [2]) worked out at 49%.

`Fc1ccc2ncnc(NCCc3ccc(Cl)cc3)c2c1` [5at, N-[2-(4-Chlorophenyl)Ethyl]-6-Fluoro-4-Quinazolinamine]: the remaining activity at 10 µM was 76% on WNK2(h) (setting [3]); 58% at ALK2(h) (setting [3]); 71% on EphA8(h) (setting [3]); 88% on IRE1(h) (setting [3]); 103% on IRAK4(h) (setting [3]); 76% on MLK1(h) (setting [3]). Besides, the remaining activity at 10 µM on CDK7/cyclinH/MAT1(h) (setting [3]) was determined as 59%.

As to `COc1ccc2ncnc(Nc3cccc(F)c3)c2c1` [5ay, N-(3-Fluorophenyl)-6-Methoxy-4-Quinazolinamine], the remaining activity at 10 µM at WNK2(h) (setting [4]) turned out to be 71%; at ALK2(h) (setting [4]), 50%; on EphA8(h) (setting [4]), 84%; at IRE1(h) (setting [4]), 83%; at IRAK4(h) (setting [4]), 60%; on MLK1(h) (setting [4]), 68%. Also, on CDK7/cyclinH/MAT1(h) (setting [4]), the remaining activity at 10 µM was found to be 58%.
